The test system of test [1] is Pg. In words: Pg attachment (early biofilm formation, colonization) on culture plates. The class given is cell-based, Porphyromonas gingivalis. The procedure:
(§1) Sg metabolites promote commensal bacterial proliferation and inhibit periodontopathogenic bacterial proliferation and colonization. Commensal bacteria, Sg, S. sanguinis (Ss, ATCC10556), S. mitis (Sm, ATCC49456) and S. oralis (So, ATCC 35037) were cultured in BHI medium. In addition, pathogenic bacteria, Pg was cultured using BHI and Tf (ATCC43037), and Td (ATCC 35405) were grown in Thioglycollate medium with vitamin K and Hemin in 90% N2, 5% H2, 5% CO2. The Sg metabolites were diluted using DMEM and added to the bacteria with the similar OD600 value. The same amount of DMEM was used as a control. During the exponential growth of bacteria, the OD600 value was measured to determine the proliferation. […] In addition, to determine the function of Sg metabolites on Pg colonization, Pg were inoculated in 24-well plates containing BHI or BHI supplemented with DMEM or Sg metabolites. […]
(§2) HCA promotes proliferation of health related bacteria and inhibits proliferation and attachment of periodontopathogenic bacteria. […] The composition of the microbiomes was determined by amplifying the V3 and V4 regions of the 16S rRNA genes. Raw data in FASTQ format were filtered and denoised using DADA2 (Divisive Amplicon Denoising Algorithm) to generate amplicon sequence variants (ASV) or operational taxonomical units (OTUs) that were then analyzed by QIIME2.

The test system of test [2] is epidydimal white adipose tissues (eWAT). Briefly: eWAT explants from mice on a HFD for 16 weeks. The class given is cell-based, mouse. As to conditions: HCA at 0.5 and 1.0 μM; 16 hours post treatment. The method, then:
In addition, freshly isolated epidydimal white adipose tissues (eWAT) from mice on a HFD for 16 weeks were minced and cultured in 24-well plates and treated with HCA at 0.5 and 1.0 μM in DMEM/F-12 containing 10% cosmic calf serum (CCS) and 1% penicillin-streptomycin (basal growth media, BGM). […] These preliminary data are strong evidence that Sg metabolites have the potential to modulate host inflammatory responses and attenuate inflammation.

Test [3] concerns HGF. In words: Anti-inflammatory miR expression after Pg-LPS challenge. Format: cell-based, human. Conditions: 24 hours after Pg-LPS challenge. The procedure:
(§3) FIGS. 11A-11B. Sg metabolites upregulate anti-inflammatory miRs in human macrophages and HGF. A-B: Relative transcript changes of miR-200c, 146a, and 21 in HGF (A) and human MDM (B) treated with AICAR, MA, HCA, and HPLA 24 hours after Pg-LPS challenge; performed in duplicate.

Test [4] concerns Td (ATCC 35405). Briefly: Bacterial proliferation measured by OD600. The class given is cell-based, Treponema denticola. Conditions: HCA at 0.1 μM; anaerobic culture. The method, then:
as §1, §2

The subject of test [5] is Human MDM. Briefly: Anti-inflammatory miR expression after Pg-LPS challenge. Format: cell-based. The method, then:
as §3
Human MDM was cultured in a 24-well plate and treated with HCA at different concentrations and Pg-LPS at 100 ng/mi for 24 hrs. […] (All data are presented as means±SEM. *: p<0.05 vs untreated, ANOVA).

In the case of `O=C(O)CCCCCO` [HCA, 6-hydroxycaproic acid], the “attachment of P. gingivalis” value in test [1] (HCA at 0.01 μM) is reported as “less of an effect”; in test [1] (HCA at 0.05 μM vs untreated control, optical density), “significantly reduced”. The “protein level of IL-6 in cultured media” value in test [2] is recorded as “significantly reduced”. The “transcripts of IL-6, IL-1β, and Nos2” value in test [2] is recorded as “significantly reduced”. Moreover, the “anti-inflammatory miRs (miR-200c, 146a, and 21)” value in test [3] and in test [5] (24 hours after Pg-LPS challenge) was “upregulate” each time. Further, the “proliferation of T. denticola” value in test [4] was “significantly inhibits”. Further, the miR-200c expression entry in test [5] (HCA at 10 μM, Pg-LPS at 100 ng/ml for 24 hrs) is on record as “significantly upregulated”.

Source of the values: US20230277483A1, “COMPOSITIONS AND METHODS TO TREAT INFLAMMATION” (University of Iowa Research Foundation, priority 2022, published 2023).
